Data taken from publication PMC8632988, “Inhibition of SYK and cSrc kinases can protect bone and cartilage in preclinical models of osteoarthritis and rheumatoid arthritis” (Scientific Reports, 2021).
Where “and” joins values, the source holds several entries; their conditions need not be identical. Equal values may be shown once.

Test system: DBA/1 mice, CIA model
Assay: Collagen-induced arthritis model in mice
Assay type: in vivo, mouse
Details: BID
Method: Collagen-induced arthritis (CIA) model was performed at Bolder BioPATH, USA. Study design and animal usage was approved by Bolder BioPATH’s Institutional Animal Care and Use Committee. CIA was induced in 6–7 week old male DBA/1 mice with body weight of 15–26 g (Harlan, Inc) by intradermal injection of Freund’s Complete Adjuvant (Difco) containing bovine type II collagen (Bolder BioPATH) on day 0 and again on day 21 according to the standard protocol. […] After that mice were randomized into six groups: a control group of four, vehicle group and four treatment groups of ten mice each. […] Each paw was scored daily for inflammation. Therapeutic and prophylactic paws were considered. At study termination mice were euthanized by CO2 inhalation followed by cervical dislocation. Fore paws, hind paws, and knees were removed for microscopy.
Mice were weighed on arthritis days 1, 3, 5, 7, 9, and 11 (prior to necropsy). Daily clinical scores were given for each of the paws (right front, left front, right rear, left rear) on days 1–11 using the following criteria:
After 1–2 days in fixative and 4–5 days in 5% formic acid for decalcification, tissues were trimmed, processed for paraffin embedding, sectioned at 8 µm and stained with toluidine blue. Hind paws and knees were embedded and sectioned in the frontal plane. Two joints from each animal were processed for histopathology evaluation. The joints were then scored by two independent readers as indicated below. When scoring, severity of changes as well as number of individual joints affected were considered. When only 1–3 joints of the paws or ankles out of a possibility of numerous metacarpal/metatarsal/digit or tarsal/tibiotarsal joints were affected, an arbitrary assignment of a maximum score of 1, 2 or 3 for parameters below was given depending on severity of changes. If more than 3 joints were involved, the criteria below were applied to the most severely affected/majority of joints.

In the case of `COc1cc(Nc2ncnc(Nc3cc4c(cn3)NC(=O)C(C)(C)O4)n2)cc(OC)c1OC` [MT-SYK-03], the “% inhibition to Vehicle, Paw Score Total AUC Sum (d1-11)” value (103 mg/kg PO) was 12%, the “Paw Score Total AUC Sum (d1-11)” value (103 mg/kg PO, group Mean) was 28.48 and the “Paw Score Total AUC Sum (d1-11)” value (103 mg/kg PO, individual animals) was 27.25 and 32.38 and 26.00 and 35.88 and 12.50 and 29.00 and 37.38 and 33.00 and 33.88 and 17.50. For the same compound, the “% inhibition to Vehicle, Average Paw Score” value (Day 1, 103 mg/kg PO) was 0%, the “Average Paw Score Per Arthritis Day (All Paws)” value (Day 1, 103 mg/kg PO, group Mean) was 0.80 and the “Average Paw Score Per Arthritis Day (All Paws)” value (Day 1, 103 mg/kg PO, individual animals, 103 mg/kg) was 0.50 and 1.50 and 1.00. For the same compound, the “% inhibition to Vehicle, Average Paw Score” value (Day 2, 103 mg/kg PO) was 18%, the “Average Paw Score Per Arthritis Day (All Paws)” value (Day 2, 103 mg/kg PO, group Mean) was 1.50 and the “Average Paw Score Per Arthritis Day (All Paws)” value (Day 2, 103 mg/kg PO, individual animals, 103 mg/kg) was 1.25 and 2.00 and 1.00 and 2.50 and 1.50 and 0.50. The “% inhibition to Vehicle, Average Paw Score” value (Day 3, 103 mg/kg PO) was 15%, the “Average Paw Score Per Arthritis Day (All Paws)” value (Day 3, 103 mg/kg PO, group Mean) was 2.25 and the “Average Paw Score Per Arthritis Day (All Paws)” value (Day 3, 103 mg/kg PO, individual animals, 103 mg/kg) was 2.25 and 3.00 and 1.25 and 3.25 and 2.00 and 2.75 and 2.50. For the same compound, the “% inhibition to Vehicle, Average Paw Score” value (Day 4, 103 mg/kg PO) was 13%, the “Average Paw Score Per Arthritis Day (All Paws)” value (Day 4, 103 mg/kg PO, group Mean) was 2.75 and the “Average Paw Score Per Arthritis Day (All Paws)” value (Day 4, 103 mg/kg PO, individual animals, 103 mg/kg) was 2.75 and 3.25 and 2.00 and 3.50 and 1.25 and 3.00. The “% inhibition to Vehicle, Average Paw Score” value (Day 5, 103 mg/kg PO) was 12%, the “Average Paw Score Per Arthritis Day (All Paws)” value (Day 5, 103 mg/kg PO, group Mean) was 3.08 and the “Average Paw Score Per Arthritis Day (All Paws)” value (Day 5, 103 mg/kg PO, individual animals, 103 mg/kg) was 3.00 and 3.50 and 2.75 and 3.75 and 1.25 and 4.00 and 2.00. For the same compound, the “% inhibition to Vehicle, Average Paw Score” value (Day 6, 103 mg/kg PO) was 11%, the “Average Paw Score Per Arthritis Day (All Paws)” value (Day 6, 103 mg/kg PO, group Mean) was 3.18 and the “Average Paw Score Per Arthritis Day (All Paws)” value (Day 6, 103 mg/kg PO, individual animals, 103 mg/kg) was 3.00 and 3.50 and 3.75 and 1.25 and 4.00 and 2.25. The “% inhibition to Vehicle, Average Paw Score” value (Day 7, 103 mg/kg PO) was 10%, the “Average Paw Score Per Arthritis Day (All Paws)” value (Day 7, 103 mg/kg PO, group Mean) was 3.28 and the “Average Paw Score Per Arthritis Day (All Paws)” value (Day 7, 103 mg/kg PO, individual animals, 103 mg/kg) was 3.00 and 3.50 and 3.25 and 4.00 and 1.25 and 4.25 and 3.75 and 2.25. The “% inhibition to Vehicle, Average Paw Score” value (Day 8, 103 mg/kg PO) was 12%, the “Average Paw Score Per Arthritis Day (All Paws)” value (Day 8, 103 mg/kg PO, group Mean) was 3.33 and the “Average Paw Score Per Arthritis Day (All Paws)” value (Day 8, 103 mg/kg PO, individual animals, 103 mg/kg) was 3.25 and 3.50 and 4.00 and 1.25 and 4.50 and 3.75 and 4.25 and 2.00. For the same compound, the “% inhibition to Vehicle, Average Paw Score” value (Day 9, 103 mg/kg PO) was 13%, the “Average Paw Score Per Arthritis Day (All Paws)” value (Day 9, 103 mg/kg PO, group Mean) was 3.43 and the “Average Paw Score Per Arthritis Day (All Paws)” value (Day 9, 103 mg/kg PO, individual animals, 103 mg/kg) was 3.25 and 3.75 and 3.50 and 4.25 and 1.50 and 4.50 and 2.00. For the same compound, the “% inhibition to Vehicle, Average Paw Score” value (Day 10, 103 mg/kg PO) was 13%, the “Average Paw Score Per Arthritis Day (All Paws)” value (Day 10, 103 mg/kg PO, group Mean) was 3.53 and the “Average Paw Score Per Arthritis Day (All Paws)” value (Day 10, 103 mg/kg PO, individual animals, 103 mg/kg) was 3.50 and 3.75 and 4.25 and 1.50 and 4.75 and 4.00 and 2.00. For the same compound, the “% inhibition to Vehicle, Average Paw Score” value (Day 11, 103 mg/kg PO) was 12%, the “Average Paw Score Per Arthritis Day (All Paws)” value (Day 11, 103 mg/kg PO, group Mean) was 3.55 and the “Average Paw Score Per Arthritis Day (All Paws)” value (Day 11, 103 mg/kg PO, individual animals, 103 mg/kg) was 3.50 and 3.75 and 4.00 and 4.25 and 1.50 and 4.75 and 2.00. For the same compound, the “% inhibition to Vehicle, Total AUC Sum (d1-11)” value (MT-SYK-03 103 mg/kg PO) was 18%, the “Summed Prophylactic (Non-Enrollment) Paw Score” value (MT-SYK-03 103 mg/kg PO, Day 1, group mean) was 0.00 and the “Summed Prophylactic (Non-Enrollment) Paw Score” value (MT-SYK-03 103 mg/kg PO, Day 1, individual animals) was 0. For the same compound, the “% inhibition to Vehicle, Summed Prophylactic (Non-Enrollment) Paw Score” value (shortened to “% inhibition … (Non-Enrollment) Paw Score”) (MT-SYK-03 103 mg/kg PO, Day 2) was 15%, the “Summed Prophylactic (Non-Enrollment) Paw Score” value (MT-SYK-03 103 mg/kg PO, Day 2, group mean) was 2.20 and the “Summed Prophylactic (Non-Enrollment) Paw Score” value (MT-SYK-03 103 mg/kg PO, Day 2, individual animals, 103 mg/kg) was 2 and 4 and 1 and 3 and 0. The “% inhibition … (Non-Enrollment) Paw Score” value (MT-SYK-03 103 mg/kg PO, Day 3) was 23%, the “Summed Prophylactic (Non-Enrollment) Paw Score” value (MT-SYK-03 103 mg/kg PO, Day 3, group mean) was 3.60 and the “Summed Prophylactic (Non-Enrollment) Paw Score” value (MT-SYK-03 103 mg/kg PO, Day 3, individual animals, 103 mg/kg) was 5 and 3 and 2 and 1 and 6 and 4. The “% inhibition … (Non-Enrollment) Paw Score” value (MT-SYK-03 103 mg/kg PO, Day 4) was 19%, the “Summed Prophylactic (Non-Enrollment) Paw Score” value (MT-SYK-03 103 mg/kg PO, Day 4, group mean) was 5.20 and the “Summed Prophylactic (Non-Enrollment) Paw Score” value (MT-SYK-03 103 mg/kg PO, Day 4, individual animals, 103 mg/kg) was 7 and 3 and 5 and 6 and 1 and 4. The “% inhibition … (Non-Enrollment) Paw Score” value (MT-SYK-03 103 mg/kg PO, Day 5) was 16%, the “Summed Prophylactic (Non-Enrollment) Paw Score” value (MT-SYK-03 103 mg/kg PO, Day 5, group mean) was 6.10 and the “Summed Prophylactic (Non-Enrollment) Paw Score” value (MT-SYK-03 103 mg/kg PO, Day 5, individual animals, 103 mg/kg) was 8 and 3 and 6 and 1 and 10 and 7 and 4. For the same compound, the “% inhibition … (Non-Enrollment) Paw Score” value (MT-SYK-03 103 mg/kg PO, Day 6) was 16%, the “Summed Prophylactic (Non-Enrollment) Paw Score” value (MT-SYK-03 103 mg/kg PO, Day 6, group mean) was 6.40 and the “Summed Prophylactic (Non-Enrollment) Paw Score” value (MT-SYK-03 103 mg/kg PO, Day 6, individual animals, 103 mg/kg) was 8 and 3 and 9 and 6 and 1 and 10 and 5. For the same compound, the “% inhibition … (Non-Enrollment) Paw Score” value (MT-SYK-03 103 mg/kg PO, Day 7) was 17%, the “Summed Prophylactic (Non-Enrollment) Paw Score” value (MT-SYK-03 103 mg/kg PO, Day 7, group mean) was 6.50 and the “Summed Prophylactic (Non-Enrollment) Paw Score” value (MT-SYK-03 103 mg/kg PO, Day 7, individual animals, 103 mg/kg) was 8 and 3 and 9 and 7 and 1 and 10 and 6 and 5. For the same compound, the “% inhibition … (Non-Enrollment) Paw Score” value (MT-SYK-03 103 mg/kg PO, Day 8) was 20%, the “Summed Prophylactic (Non-Enrollment) Paw Score” value (MT-SYK-03 103 mg/kg PO, Day 8, group mean) was 6.50 and the “Summed Prophylactic (Non-Enrollment) Paw Score” value (MT-SYK-03 103 mg/kg PO, Day 8, individual animals, 103 mg/kg) was 8 and 3 and 9 and 7 and 1 and 10 and 6 and 5. The “% inhibition … (Non-Enrollment) Paw Score” value (MT-SYK-03 103 mg/kg PO, Day 9) was 20%, the “Summed Prophylactic (Non-Enrollment) Paw Score” value (MT-SYK-03 103 mg/kg PO, Day 9, group mean) was 6.80 and the “Summed Prophylactic (Non-Enrollment) Paw Score” value (MT-SYK-03 103 mg/kg PO, Day 9, individual animals, 103 mg/kg) was 8 and 3 and 10 and 2 and 6 and 5. The “% inhibition … (Non-Enrollment) Paw Score” value (MT-SYK-03 103 mg/kg PO, Day 10) was 18%, the “Summed Prophylactic (Non-Enrollment) Paw Score” value (MT-SYK-03 103 mg/kg PO, Day 10, group mean) was 7.20 and the “Summed Prophylactic (Non-Enrollment) Paw Score” value (MT-SYK-03 103 mg/kg PO, Day 10, individual animals, 103 mg/kg) was 9 and 3 and 11 and 8 and 2 and 10 and 7 and 5.
